From article PMC11193111 (2024) come the findings set out here.

For the assay, the system named is THF-containing double-stranded 17-mer oligodeoxynucleotide (DNA, mismatch bulge abasic, tetrahydrofuran (THF, abasic site analogue) at 6 of strand 1) TCACCNTCGTACGACTC/GAGTCGTACGACGGTGA
Nature of the assay: thiazole orange displacement, fluorescence. The conditions noted are these: 100 mM KCl, 20 mM Tris-HCl pH 7.4, 0.01% Tween-20, room temperature, 250 nM thiazole orange displaced, 50 nM DNA.

For `O=C1c2c(O)ccc(O)c2C(=O)c2c(NCCNCCO)ccc(NCCNCCO)c21`, the “apparent DNA binding constant” value is reported as 83 ± 3 nM. In the case of `NCCNc1ccc(NCCN)c2c1C(=O)c1ccncc1C2=O`, the “apparent DNA binding constant” value amounted to 1250 ± 320 nM.
